According to patent US9776972B2, “Pyrazole derivatives as arginine methyltransferase inhibitors and uses thereof” (priority 2013, dated 2017):
pIC50: −log10 of the molar value. Where a name gives a salt, the structure may show the parent alone. Read-outs that look alike come from different tables or passages of the source.

Biological target: T1, Human CARM1 (PRMT4) (Homo sapiens, UniProt Q86X55)
T1 construct: Flag-CARM1-His; made in house; host or cells: HEK 293F cells (BacMam baculovirus)
T1 sequence (Q86X55 1-585 isoform Q86X55-1): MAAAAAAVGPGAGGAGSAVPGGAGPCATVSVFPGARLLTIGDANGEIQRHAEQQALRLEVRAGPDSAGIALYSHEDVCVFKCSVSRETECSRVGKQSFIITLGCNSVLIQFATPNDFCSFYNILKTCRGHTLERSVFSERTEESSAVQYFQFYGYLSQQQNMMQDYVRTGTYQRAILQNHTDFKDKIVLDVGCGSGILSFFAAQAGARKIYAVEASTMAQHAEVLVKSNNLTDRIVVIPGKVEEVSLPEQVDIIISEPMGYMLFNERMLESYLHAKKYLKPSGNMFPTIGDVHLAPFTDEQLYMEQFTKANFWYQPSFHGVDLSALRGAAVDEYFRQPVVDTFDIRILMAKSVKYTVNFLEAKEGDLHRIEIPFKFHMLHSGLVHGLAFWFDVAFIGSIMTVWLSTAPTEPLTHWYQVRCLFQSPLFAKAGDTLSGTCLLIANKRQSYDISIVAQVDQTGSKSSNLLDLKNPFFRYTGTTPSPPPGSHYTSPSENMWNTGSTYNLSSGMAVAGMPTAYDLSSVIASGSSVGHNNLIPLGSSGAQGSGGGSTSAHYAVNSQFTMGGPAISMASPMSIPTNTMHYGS
Assay: CARM1 Biochemical Assay (3H-SAM Flashplate, peptide substrate)
Excerpt: S-adenosylmethionine (SAM), S-adenosylhomocysteine (SAH), bicine, Tween20, dimethylsulfoxide (DMSO), bovine skin gelatin (BSG), sodium butyrate and Tris(2-carboxyethyl)phosphine hydrochloride solution (TCEP) were purchased from Sigma-Aldrich at the highest level of purity possible. ^3H-SAM was purchase from American Radiolabeled Chemicals with a specific activity of 80 Ci/mmol. 384-well streptavidin Flashplates were purchased from PerkinElmer.
Peptide representative of human histone H3 residues 16-30 was synthesized with an N-terminal linker-affinity tag motif and a C-terminal amide cap by 21st Century Biochemicals. […] The sequence was Biot-Ahx-[…]-amide and contained a monomethylated arginine at position 26 (SEQ ID NO.: 14).
Recombinant baculovirus were generated according to Bac-to-Bac kit instructions (Life Technologies). […] Infections were carried out at 37° C. for 48 hours, harvested by centrifugation, and stored at −80° C. for purification.
Column was washed with 500 mM NaCl in buffer A and Flag-CARM1-His was eluted with 200 ug/ml FLAG peptide in buffer A. Pooled fractions were dialyzed in 20 mM Tris, 150 mM NaCl, 5% glycerol and 1 mM DTT, pH 7.8.
General Procedure for CARM1 Enzyme Assays on Peptide Substrates.
The assays were all performed in a buffer consisting of 20 mM Bicine (pH=7.6), 1 mM TCEP, 0.005% BSG, and 0.002% Tween 20, prepared on the day of use. […] DMSO (1 ul) was added to Columns 11, 12, 23, 24, rows A-H for the maximum signal control and 1 ul of SAH, a known product and inhibitor of CARM1, was added to columns 11, 12, 23, 24, rows I-P for the minimum signal control. A cocktail (40 ul) containing the CARM1 enzyme was added by Multidrop Combi (Thermo-Fisher). The compounds were allowed to incubate with CARM1 for 30 min at room temperature, then a cocktail (10 ul) containing ^3H-SAM and peptide was added to initiate the reaction (final volume=51 ul). […] The assays were stopped by the addition of non-radiolabeled SAM (10 ul) to a final concentration of 300 uM, which dilutes the ^3H-SAM to a level where its incorporation into the peptide substrate is no longer detectable. 50 ul of the reaction in the 384-well polypropylene plate was then transferred to a 384-well Flashplate and the biotinylated peptides were allowed to bind to the streptavidin surface for at least 1 hour before being washed once with 0.1% Tween20 in a Biotek ELx405 plate washer. The plates were then read in a PerkinElmer TopCount plate reader to measure the quantity of ^3H-labeled peptide bound to the Flashplate surface, measured as disintegrations per minute (dpm) or alternatively, referred to as counts per minute (cpm).
Where dpm=disintegrations per minute, cmpd=signal in assay well, and min and max are the respective minimum and maximum signal controls.
Where top and bottom are the normally allowed to float, but may be fixed at 100 or 0 respectively in a 3-parameter fit. The Hill Coefficient normally allowed to float but may also be fixed at 1 in a 3-parameter fit. Y is the % inhibition and X is the compound concentration.

[1] = single experiment or average of multiple experiments

Q: How did the pIC50 [1] turn out when `CCn1ncc(CN(C)CCNC)c1-c1ccc(F)cc1` [Compound 7] was run?
A: 5.57

Q: `CCn1cc(CN(C)CCNC)c(-c2ccc(F)cc2)n1` [Compound 8] was tested. Which pIC50 [1] did it give?
A: 5.46

Q: `CN(CCN)Cc1c[nH]nc1-c1ccc(OCC(F)(F)F)cc1` [Compound 96] was tested. Which pIC50 [1] did it give?
A: 7.12

Q: `CC(C)Oc1ccc(-c2n[nH]cc2CN(C)CCN)cc1F` [Compound 97] was tested. Which pIC50 [1] did it give?
A: 6.29

Q: `CN(CCN)Cc1c[nH]nc1-c1ccc(C2CCOCC2)cc1` [Compound 98] was tested. Which pIC50 [1] did it give?
A: 6.36

Q: How did the pIC50 [1] turn out when `CN(CCN)Cc1c[nH]nc1-c1ccc(F)cc1F` [Compound 99] was run?
A: 5.12

Q: With `CN(CCN)Cc1n[nH]cc1-c1ccc(C#N)cc1` [Compound 100] as the compound, how does the pIC50 [1] read?
A: 5.38

Q: `CC(C)c1ccc(-c2c[nH]nc2CN(C)CCN)cc1` [Compound 101] was tested. Which pIC50 [1] did it give?
A: 5.32

Q: With `CN(CCN)Cc1n[nH]cc1-c1ccc(Cl)cc1` [Compound 102] as the compound, how does the pIC50 [1] read?
A: 5.97

Q: With `CN(CCN)Cc1n[nH]cc1-c1ccc(C(F)(F)F)cc1` [Compound 103] as the compound, how does the pIC50 [1] read?
A: 5.83

Q: With `CN(CCN)Cc1n[nH]cc1-c1ccc(C2CC2)cc1` [Compound 104] as the compound, how does the pIC50 [1] read?
A: 5.71

Q: How did the pIC50 [1] turn out when `CN(CCN)Cc1n[nH]cc1-c1ccc(OC(F)(F)F)cc1` [Compound 105] was run?
A: 5.51

Q: `COc1ccc(-c2n[nH]cc2CN(C)CCN)c(F)c1` [Compound 107] was tested. Which pIC50 [1] did it give?
A: 5.54

Q: `Cc1ccc(-c2n[nH]cc2CN(C)CCN)c(F)c1` [Compound 108] was tested. Which pIC50 [1] did it give?
A: 5.82

Q: With `COc1ccccc1-c1n[nH]cc1CN(C)CCN` [Compound 109] as the compound, how does the pIC50 [1] read?
A: 5.28

Q: `Cc1cc(C#N)ccc1-c1n[nH]cc1CN(C)CCN` [Compound 110] was tested. Which pIC50 [1] did it give?
A: 5.06

Q: `CN(CCN)Cc1c[nH]nc1-c1cc(F)cc(F)c1` [Compound 111] was tested. Which pIC50 [1] did it give?
A: 6.34

Q: How did the pIC50 [1] turn out when `CC(=O)c1cccc(-c2n[nH]cc2CN(C)CCN)c1` [Compound 112] was run?
A: 5.61

Q: With `CN(CCN)Cc1c[nH]nc1-c1ccc(OC2CC2)cc1` [Compound 114] as the compound, how does the pIC50 [1] read?
A: 6.48

Q: `CC(O)c1ccc(-c2n[nH]cc2CN(C)CCN)cc1` (stereo not shown) [Compound 115] was tested. Which pIC50 [1] did it give?
A: 5.45

Q: `CN(CCN)Cc1c[nH]nc1-c1ccc(C2CC2)cc1` [Compound 116] was tested. Which pIC50 [1] did it give?
A: 5.91

Q: With `CN(CCN)Cc1c[nH]nc1-c1ccc(C(F)(F)F)c(Cl)c1` [Compound 117] as the compound, how does the pIC50 [1] read?
A: 6.22

Q: With `CN(CCN)Cc1c[nH]nc1-c1ccc(Cl)c(F)c1` [Compound 118] as the compound, how does the pIC50 [1] read?
A: 6.94

Q: `CN(CCN)Cc1n[nH]cc1-c1ccc(OC2CC2)cc1` [Compound 119] was tested. Which pIC50 [1] did it give?
A: 6.36

Q: `CN(CCN)Cc1c[nH]nc1-c1cc(F)cc(Cl)c1` [Compound 121] was tested. Which pIC50 [1] did it give?
A: 6.67

Q: `CN(CCN)Cc1c[nH]nc1-c1cccc(Cl)c1` [Compound 122] was tested. Which pIC50 [1] did it give?
A: 6.39

Q: `CN(CCN)Cc1c[nH]nc1-c1cccc(Cl)c1F` [Compound 123] was tested. Which pIC50 [1] did it give?
A: 5.73

Q: How did the pIC50 [1] turn out when `CN(CCN)Cc1c[nH]nc1-c1ccc(F)c(Cl)c1` [Compound 124] was run?
A: 6.26

Q: With `COc1ccc(-c2n[nH]cc2CN(C)CCN)cc1Cl` [Compound 125] as the compound, how does the pIC50 [1] read?
A: 5.84

Q: How did the pIC50 [1] turn out when `Cc1ccc(-c2n[nH]cc2CN(C)CCN)cc1Cl` [Compound 126] was run?
A: 6.99

Q: With `COc1cc(Cl)cc(-c2n[nH]cc2CN(C)CCN)c1` [Compound 127] as the compound, how does the pIC50 [1] read?
A: 5.95

Q: How did the pIC50 [1] turn out when `Cc1c(F)cccc1-c1n[nH]cc1CN(C)CCN` [Compound 129] was run?
A: 5.62

Q: `COc1cccc(-c2n[nH]cc2CN(C)CCN)c1` [Compound 130] was tested. Which pIC50 [1] did it give?
A: 5.62

Q: With `Cc1cccc(-c2n[nH]cc2CN(C)CCN)c1` [Compound 131] as the compound, how does the pIC50 [1] read?
A: 5.93

Q: With `CN(CCN)Cc1c[nH]nc1-c1ccc(Cl)cc1F` [Compound 132] as the compound, how does the pIC50 [1] read?
A: 5.67

Q: How did the pIC50 [1] turn out when `Cc1cc(Cl)ccc1-c1n[nH]cc1CN(C)CCN` [Compound 133] was run?
A: 5.37

Q: `COc1ccc(-c2n[nH]cc2CN(C)CCN)cc1F` [Compound 134] was tested. Which pIC50 [1] did it give?
A: 5.58

Q: With `CCNC(=O)c1ccc(-c2n[nH]cc2CN(C)CCN)cc1` [Compound 136] as the compound, how does the pIC50 [1] read?
A: 5.68

Q: With `CN(CCN)Cc1c[nH]nc1-c1cc(Cl)cc(Cl)c1` [Compound 137] as the compound, how does the pIC50 [1] read?
A: 6.07

Q: How did the pIC50 [1] turn out when `CN(CCN)Cc1n[nH]cc1-c1ccc(OC(F)F)cc1` [Compound 138] was run?
A: 5.57

Q: With `CN(CCN)Cc1c[nH]nc1-c1ccc(C(F)(F)F)c(F)c1` [Compound 141] as the compound, how does the pIC50 [1] read?
A: 5.86

Q: With `COc1cc(-c2n[nH]cc2CN(C)CCN)ccc1F` [Compound 142] as the compound, how does the pIC50 [1] read?
A: 5.89

Q: `CCN(CC)C(=O)c1ccc(-c2n[nH]cc2CN(C)CCN)cc1` [Compound 143] was tested. Which pIC50 [1] did it give?
A: 5.23

Q: With `CC(C)Oc1ccc(-c2c[nH]nc2CN(C)CCN)cc1F` [Compound 144] as the compound, how does the pIC50 [1] read?
A: 5.34

Q: What does the source list for `CNCCN(C)Cc1cnn(C)c1-c1ccc(OC(C)C)cc1` [Compound 244, hydrochloride]?
A: pIC50: > 7.00; pIC50 [1]: 7.03
